Key:
Capivasertib = compound: C1CN(CCC1(C(=O)N[C@@H](CCO)C2=CC=C(C=C2)Cl)N)C3=NC=NC4=C3C=CN4 [Capivasertib]
Procedure, shortened: (§1)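 After 24 hours at 37°C and 5% CO2 in 1536-well plates holding 7.5 μl of DMEM/F12 or RPMI with 10% FBS, cancer cell lines were dosed for 72 hours, with final DMSO typically 0.2%. Viability came from CellTiter-Glo 2.0 luminescence, scaled between the means of blank wells and DMSO wells. A non-linear mixed effects model fitted a two-parameter logistic curve to each dose response to give the single-agent IC50.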

AZD1775 = compound: C=CCn1c(=O)c2cnc(Nc3ccc(N4CCN(C)CC4)cc3)nc2n1-c1cccc(C(C)(C)O)n1 [AZD1775]; conditions: max 3 µM
Procedure, shortened: as §1

Trametinib = compound: CC(=O)Nc1cccc(-n2c(=O)n(C3CC3)c(=O)c3c(Nc4ccc(I)cc4F)n(C)c(=O)c(C)c32)c1 [Trametinib]; conditions: max 1 µM
Procedure, shortened: as §1

Palbociclib = compound: CC(=O)c1c(C)c2cnc(Nc3ccc(N4CCNCC4)cn3)nc2n(C2CCCC2)c1=O [Palbociclib]; conditions: max 10 µM
Procedure, shortened: as §1

AZD1390 = compound: CC(C)n1c(=O)n(C)c2cnc3cc(F)c(-c4ccc(OCCCN5CCCCC5)nc4)cc3c21 [AZD1390]; conditions: max 0.3 µM
Procedure, shortened: as §1

Venetoclax = compound: CC1(C)CCC(CN2CCN(c3ccc(C(=O)NS(=O)(=O)c4ccc(NCC5CCOCC5)c([N+](=O)[O-])c4)c(Oc4cnc5[nH]ccc5c4)c3)CC2)=C(c2ccc(Cl)cc2)C1 [Venetoclax]; conditions: max 1 µM
Procedure, shortened: as §1

Dasatinib = compound: CC1=C(C(=CC=C1)Cl)NC(=O)C2=CN=C(S2)NC3=CC(=NC(=N3)C)N4CCN(CC4)CCO [Dasatinib]; conditions: max 2 µM
Procedure, shortened: as §1

SG3199 = compound: CC1=CN2[C@@H](C1)C=NC3=CC(=C(C=C3C2=O)OC)OCCCCCOC4=C(C=C5C(=C4)N=C[C@@H]6CC(=CN6C5=O)C)OC [SG3199]; conditions: max 0.001 µM
Procedure, shortened: as §1

AZD2811 = compound: CCN(CCO)CCCOc1ccc2c(Nc3cc(CC(=O)Nc4cccc(F)c4)[nH]n3)ncnc2c1 [AZD2811]; conditions: max 1 µM
Procedure, shortened: as §1

SN-38 = compound: CCc1c2c(nc3ccc(O)cc13)-c1cc3c(c(=O)n1C2)COC(=O)[C@]3(O)CC [SN-38]; conditions: max 0.3 µM
Procedure, shortened: as §1

AZD0156 = compound: CN(C)CCCOc1ccc(-c2ccc3ncc4c(c3c2)n(C2CCOCC2)c(=O)n4C)cn1 [AZD0156]; conditions: max 3 µM
Procedure, shortened: as §1

AZD4320 = compound: CN(CC[C@H](CSC1=CC=CC=C1)NC2=C(C=C(C=C2)S(=O)(=O)NC(=O)C3=CC=C(C=C3)N4CCC(CC4)[C@H](C5=CC=CC=C5C6=CC=C(C=C6)Cl)O)S(=O)(=O)C(F)(F)F)CCO [AZD4320]; conditions: max 1 µM
Procedure, shortened: as §1

Alisertib = compound: COc1cc(Nc2ncc3c(n2)-c2ccc(Cl)cc2C(c2c(F)cccc2OC)=NC3)ccc1C(=O)O [Alisertib]; conditions: max 10 µM
Procedure, shortened: as §1

Gefitinib = compound: COc1cc2ncnc(Nc3ccc(F)c(Cl)c3)c2cc1OCCCN1CCOCC1 [Gefitinib]; conditions: max 10 µM
Procedure, shortened: as §1

Prexasertib = compound: COc1cccc(OCCCN)c1-c1cc(Nc2cnc(C#N)cn2)n[nH]1 [Prexasertib]; conditions: max 1 µM
Procedure, shortened: as §1

Doxorubicin = compound: COc1cccc2c1C(=O)c1c(O)c3c(c(O)c1C2=O)C[C@@](O)(C(=O)CO)C[C@@H]3O[C@H]1C[C@H](N)[C@H](O)[C@H](C)O1 [Doxorubicin]; conditions: max 1 µM
Procedure, shortened: as §1

AZD5153 = compound: COc1nnc2ccc(N3CCC(c4ccc(OCCN5CCN(C)C(=O)[C@H]5C)cc4)CC3)nn12 [AZD5153]; conditions: max 1 µM
Procedure, shortened: as §1

Lapatinib = compound: CS(=O)(=O)CCNCc1ccc(-c2ccc3ncnc(Nc4ccc(OCc5cccc(F)c5)c(Cl)c4)c3c2)o1 [Lapatinib]; conditions: max 10 µM
Procedure, shortened: as §1

AZD8186 = compound: C[C@@H](Nc1cc(F)cc(F)c1)c1cc(C(=O)N(C)C)cc2c(=O)cc(N3CCOCC3)oc12 [AZD8186]
Procedure, shortened: as §1

Crizotinib = compound: C[C@@H](Oc1cc(-c2cnn(C3CCNCC3)c2)cnc1N)c1c(Cl)ccc(F)c1Cl [Crizotinib]; conditions: max 10 µM
Procedure, shortened: as §1

Savolitinib = compound: C[C@@H](c1ccc2nccn2c1)n1nnc2ncc(-c3cnn(C)c3)nc21 [Savolitinib]; conditions: max 1 µM
Procedure, shortened: as §1

AZD6738 = compound: C[C@@H]1COCCN1C2=NC(=NC(=C2)C3(CC3)[S@](=N)(=O)C)C4=C5C=CNC5=NC=C4 [AZD6738]; conditions: max 10 µM
Procedure, shortened: as §1

AZD5991 = compound: Cc1c2c(nn1C)CSCc1cc(n(C)n1)CSc1cc(c3ccccc3c1)OCCCc1c(C(=O)O)n(C)c3c-2c(Cl)ccc13 [AZD5991]; conditions: max 1 µM
Procedure, shortened: as §1

AZD7648 = compound: Cc1cc2ncnn2cc1Nc1ncc2c(n1)n(C1CCOCC1)c(=O)n2C [AZD7648]; conditions: max 10 µM
Procedure, shortened: as §1

Taselisib = compound: Cc1nc(-c2cn3c(n2)-c2ccc(-c4cnn(C(C)(C)C(N)=O)c4)cc2OCC3)n(C(C)C)n1 [Taselisib]; conditions: max 10 µM
Procedure, shortened: as §1

Selumetinib = compound: Cn1cnc2c(F)c(Nc3ccc(Br)cc3Cl)c(C(=O)NOCCO)cc21 [Selumetinib]; conditions: max 10 µM
Procedure, shortened: as §1

Olaparib = compound: O=C(c1cc(Cc2n[nH]c(=O)c3ccccc23)ccc1F)N1CCN(C(=O)C2CC2)CC1 [Olaparib]
Procedure, shortened: as §1

Carboplatin = compound: C1CC(C1)(C(=O)[O-])C(=O)[O-].N.N.[Pt+2] [Carboplatin]; conditions: max 10 µM
Procedure, shortened: as §1

AZD5363 = compound: C1CN(CCC1(C(=O)N[C@@H](CCO)C2=CC=C(C=C2)Cl)N)C3=NC=NC4=C3C=CN4 [AZD5363]; conditions: max 10 µM
Procedure, shortened: as §1

Paclitaxel = compound: CC(=O)O[C@H]1C(=O)[C@@]2(C)[C@H]([C@H](OC(=O)c3ccccc3)[C@]3(O)C[C@H](OC(=O)[C@H](O)[C@@H](NC(=O)c4ccccc4)c4ccccc4)C(C)=C1C3(C)C)[C@]1(OC(C)=O)CO[C@@H]1C[C@@H]2O [Paclitaxel]; conditions: max 3 µM
Procedure, shortened: as §1

Etoposide = compound: COc1cc([C@@H]2c3cc4c(cc3[C@@H](O[C@@H]3O[C@@H]5CO[C@@H](C)O[C@H]5[C@H](O)[C@H]3O)[C@H]3COC(=O)[C@H]23)OCO4)cc(OC)c1O [Etoposide]; conditions: max 10 µM
Procedure, shortened: as §1

SRA737 = compound: N#Cc1cnc(Nc2cc(NC[C@H]3CNCCO3)c(C(F)(F)F)cn2)cn1 [SRA737]; conditions: max 10 µM
Procedure, shortened: as §1

MK-2206 = compound: NC1(c2ccc(-c3nc4ccn5c(=O)[nH]nc5c4cc3-c3ccccc3)cc2)CCC1 [MK-2206]; conditions: max 10 µM
Procedure, shortened: as §1

Gemcitabine = compound: Nc1ccn([C@@H]2O[C@H](CO)[C@@H](O)C2(F)F)c(=O)n1 [Gemcitabine]; conditions: max 0.3 µM
Procedure, shortened: as §1

[1] = compound: O=C(Nc1ccc2[nH]nc(-c3ccncc3)c2c1)[C@@H]1CCN(CC(=O)N2CCN(c3ccc(-c4ncccn4)cc3)CC2)C1; conditions: max 5 µM
Procedure, shortened: as §1

5-Fluorouracil = compound: O=c1[nH]cc(F)c(=O)[nH]1 [5-Fluorouracil]; conditions: max 20 µM
Procedure, shortened: as §1

Cell Line | IC50, cell viability 72 h (Capivasertib; max 10 µM) | IC50, cell viability 72 h (AZD1775) | IC50, cell viability 72 h (Trametinib) | IC50, cell viability 72 h (Palbociclib) | IC50, cell viability 72 h (AZD1390) | IC50, cell viability 72 h (Venetoclax) | IC50, cell viability 72 h (Dasatinib) | IC50, cell viability 72 h (SG3199) | IC50, cell viability 72 h (AZD2811) | IC50, cell viability 72 h (SN-38) | IC50, cell viability 72 h (AZD0156) | IC50, cell viability 72 h (AZD4320) | IC50, cell viability 72 h (Alisertib) | IC50, cell viability 72 h (Gefitinib) | IC50, cell viability 72 h (Prexasertib) | IC50, cell viability 72 h (Doxorubicin) | IC50, cell viability 72 h (AZD5153) | IC50, cell viability 72 h (Lapatinib) | IC50, cell viability 72 h (AZD8186; max 3 µM) | IC50, cell viability 72 h (Crizotinib) | IC50, cell viability 72 h (Savolitinib) | IC50, cell viability 72 h (AZD6738) | IC50, cell viability 72 h (AZD5991) | IC50, cell viability 72 h (AZD7648) | IC50, cell viability 72 h (Taselisib) | IC50, cell viability 72 h (Selumetinib) | IC50, cell viability 72 h (Olaparib; max 10 µM) | IC50, cell viability 72 h (Capivasertib; max 3 µM) | IC50, cell viability 72 h (Olaparib; max 3 µM) | IC50, cell viability 72 h (Carboplatin) | IC50, cell viability 72 h (AZD5363) | IC50, cell viability 72 h (Paclitaxel) | IC50, cell viability 72 h (Etoposide) | IC50, cell viability 72 h (AZD8186; max 10 µM) | IC50, cell viability 72 h (SRA737) | IC50, cell viability 72 h (MK-2206) | IC50, cell viability 72 h (Gemcitabine) | IC50, cell viability 72 h [1] | IC50, cell viability 72 h (5-Fluorouracil)
DEL (T-Cell Non-Hodgkin's Lymphoma) | > 10000 nM | 178 nM | > 1000 nM | 3530 nM | > 300 nM | > 1000 nM | > 2000 nM | > 1 nM | 151 nM | 2.3 nM | 2810 nM | > 1000 nM | 20.3 nM | > 10000 nM | 5.4 nM | 91.3 nM | 27.5 nM | 8540 nM | > 3000 nM | 120 nM | > 1000 nM | 707 nM | 28.7 nM | > 10000 nM | > 10000 nM | > 10000 nM | 8260 nM |  |  |  |  |  |  |  |  |  |  |  | 
NCI-H1869 (Non-Small Cell Lung Carcinoma) |  | > 3000 nM |  |  |  |  |  |  |  |  | > 3000 nM |  |  |  |  |  |  |  |  |  |  |  |  |  |  |  |  | > 3000 nM | > 3000 nM |  |  |  |  |  |  |  |  |  | 
NCI-H2085 (Non-Small Cell Lung Carcinoma) |  | 3000 nM | > 1000 nM | > 10000 nM | > 300 nM | > 1000 nM | 152 nM | > 1 nM | > 1000 nM | > 300 nM | > 3000 nM | > 1000 nM | 8070 nM | > 10000 nM | 67.3 nM | > 1000 nM | > 1000 nM | > 10000 nM |  | > 10000 nM | > 1000 nM | > 10000 nM | > 1000 nM | > 10000 nM | > 10000 nM | > 10000 nM | > 10000 nM |  |  | > 10000 nM | > 10000 nM | 382 nM | > 10000 nM | 3580 nM | > 10000 nM | > 10000 nM | > 300 nM | > 5000 nM | > 20000 nM
RC-K8 (B-Cell Non-Hodgkin's Lymphoma) | > 10000 nM | > 3000 nM | > 1000 nM | > 10000 nM | > 300 nM | > 1000 nM | > 2000 nM |  | > 1000 nM | 13.4 nM | > 3000 nM | 856 nM | 3000 nM | > 10000 nM | 14.5 nM |  | 100 nM | > 10000 nM | > 3000 nM | > 10000 nM | > 1000 nM | 1630 nM | > 1000 nM | > 10000 nM | 7690 nM | > 10000 nM |  |  | > 3000 nM |  |  |  |  |  |  |  |  |  | 

— the supplement of paper PMC11061612
